The values that follow come from ChEMBL document CHEMBL1154536, “Optimization of 4,6-bis-anilino-1H-pyrrolo[2,3-d]pyrimidine IGF-1R tyrosine kinase inhibitors towards JNK selectivity” (Bioorg Med Chem Lett, 2009).

Structures are written as SMILES.

Mitogen-activated protein kinase 8, sequence (P45983 whole entry): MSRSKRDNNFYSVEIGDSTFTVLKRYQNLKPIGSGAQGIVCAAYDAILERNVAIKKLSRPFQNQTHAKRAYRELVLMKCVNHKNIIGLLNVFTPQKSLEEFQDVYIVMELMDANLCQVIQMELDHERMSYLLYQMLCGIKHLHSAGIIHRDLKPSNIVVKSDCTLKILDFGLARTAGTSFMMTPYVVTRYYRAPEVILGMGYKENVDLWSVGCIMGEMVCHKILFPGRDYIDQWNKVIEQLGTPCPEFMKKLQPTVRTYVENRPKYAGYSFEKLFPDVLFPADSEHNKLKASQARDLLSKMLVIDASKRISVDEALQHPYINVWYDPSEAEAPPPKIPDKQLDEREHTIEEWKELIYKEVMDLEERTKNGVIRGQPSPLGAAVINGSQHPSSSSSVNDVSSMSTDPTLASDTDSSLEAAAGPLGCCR

One data set deals with T1, Insulin-like growth factor 1 receptor (Homo sapiens, UniProt P08069). Kind of data set: Inhibition of IGF-1R.
T1 sequence (P08069 31-736 limits assumed): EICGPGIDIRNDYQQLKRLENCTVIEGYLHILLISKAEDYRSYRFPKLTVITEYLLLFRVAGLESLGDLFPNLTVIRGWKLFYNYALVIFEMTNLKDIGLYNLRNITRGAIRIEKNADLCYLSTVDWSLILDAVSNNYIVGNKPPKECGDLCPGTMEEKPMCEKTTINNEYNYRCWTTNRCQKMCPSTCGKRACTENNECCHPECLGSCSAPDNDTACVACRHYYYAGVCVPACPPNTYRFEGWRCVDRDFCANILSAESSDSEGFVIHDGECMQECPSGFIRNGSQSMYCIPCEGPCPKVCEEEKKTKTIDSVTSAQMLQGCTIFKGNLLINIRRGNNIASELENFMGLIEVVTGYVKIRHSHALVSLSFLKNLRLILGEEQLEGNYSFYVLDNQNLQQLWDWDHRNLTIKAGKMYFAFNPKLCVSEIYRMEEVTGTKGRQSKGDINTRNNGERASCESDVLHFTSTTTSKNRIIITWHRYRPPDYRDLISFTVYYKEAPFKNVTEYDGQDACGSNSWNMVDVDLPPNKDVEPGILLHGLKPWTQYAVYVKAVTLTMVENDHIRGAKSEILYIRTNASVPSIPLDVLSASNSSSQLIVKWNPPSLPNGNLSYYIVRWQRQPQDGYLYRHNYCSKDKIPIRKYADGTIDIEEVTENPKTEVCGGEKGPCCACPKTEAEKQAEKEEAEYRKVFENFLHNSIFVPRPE
T1 sequence (P08069 741-1367 limits assumed): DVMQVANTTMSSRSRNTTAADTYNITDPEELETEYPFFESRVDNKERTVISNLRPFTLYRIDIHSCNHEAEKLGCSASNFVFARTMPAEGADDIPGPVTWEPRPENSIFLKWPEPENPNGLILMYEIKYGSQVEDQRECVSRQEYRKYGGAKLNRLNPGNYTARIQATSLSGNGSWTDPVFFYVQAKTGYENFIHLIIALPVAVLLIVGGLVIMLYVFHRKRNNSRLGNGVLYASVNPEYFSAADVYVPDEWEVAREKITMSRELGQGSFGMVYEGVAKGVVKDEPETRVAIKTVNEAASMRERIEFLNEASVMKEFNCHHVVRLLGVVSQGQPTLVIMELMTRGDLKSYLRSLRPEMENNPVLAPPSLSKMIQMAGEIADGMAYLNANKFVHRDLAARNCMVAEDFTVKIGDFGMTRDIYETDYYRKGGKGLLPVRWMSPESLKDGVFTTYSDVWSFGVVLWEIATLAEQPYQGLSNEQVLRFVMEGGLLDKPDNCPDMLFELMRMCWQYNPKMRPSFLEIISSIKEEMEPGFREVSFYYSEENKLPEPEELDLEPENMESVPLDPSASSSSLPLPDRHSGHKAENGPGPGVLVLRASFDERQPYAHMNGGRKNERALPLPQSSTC
Conditions: not given
What is called IC50 is the concentration that gives 50% inhibition. `COc1cc2c(cc1Nc1nc(Nc3cccc(F)c3C(N)=O)c3cc[nH]c3n1)N(C(=O)CN(C)OC)CC2` displayed an IC50 of 50 nM.
As for `COc1cc(C)c(N(C)C(=O)CN(C)C)cc1Nc1nc(Nc2cccc(F)c2C(N)=O)c2cc[nH]c2n1` [GSK-2219385A], the IC50 is 63 nM.
`COc1cc(Cl)c(OCCCN(C)C)cc1Nc1nc(Nc2cccc(F)c2C(N)=O)c2cc[nH]c2n1` displayed an IC50 of 13 nM.
`COc1cc2c(cc1Nc1nc(Nc3cccc(F)c3C(N)=O)c3cc[nH]c3n1)N(C(=O)CN1CCOCC1)CC2` came in with an IC50 of 13 nM.
`COc1ccc(NC(=O)CN(C)C)cc1Nc1nc(Nc2cccc(F)c2C(N)=O)c2cc[nH]c2n1` gave an IC50 of 1 nM.
Still for that read-out and setting: the value for `COc1cc2c(cc1Nc1nc(Nc3cccc(F)c3C(N)=O)c3cc[nH]c3n1)N(C(=O)CCN1CCN(C(C)C)CC1)CC2` was 4 nM; that for `COc1ccc(CCCN(C)C)cc1Nc1nc(Nc2cccc(F)c2C(N)=O)c2cc[nH]c2n1` was 13 nM.
Turning to `CCN(CC)CC(=O)N1CCc2cc(OC)c(Nc3nc(Nc4cccc(F)c4C(N)=O)c4cc[nH]c4n3)cc21`, half-maximal inhibition (IC50) required 2 nM.
`COc1cc2c(cc1Nc1nc(Nc3cccc(F)c3C(N)=O)c3cc[nH]c3n1)N(C(=O)Cn1ccnc1)CC2`: 32 nM corresponded to half-maximal inhibition (IC50).
The compound `CNCC(=O)N1CCc2cc(OC)c(Nc3nc(Nc4cccc(F)c4C(N)=O)c4cc[nH]c4n3)cc21` gave an IC50 of 2 nM.
As for `COc1cc2c(cc1Nc1nc(Nc3cccc(F)c3C(N)=O)c3cc[nH]c3n1)N(C(=O)CN1CCN(C(C)C)CC1)CC2` [GSK-1751853A], inhibition was half-maximal at 32 nM (IC50).
`CCN(C)CC(=O)N1CCc2cc(OC)c(Nc3nc(Nc4cccc(F)c4C(N)=O)c4cc[nH]c4n3)cc21` came in with a half-maximal inhibitory concentration (IC50) of 3 nM.
Compound `COc1cc2c(cc1Nc1nc(Nc3cccc(F)c3C(N)=O)c3cc[nH]c3n1)N(CCN(C)C)CC2` came in with a concentration for half-maximal inhibition (IC50) of 40 nM.

Another data set concerns the target Mitogen-activated protein kinase 8 (Homo sapiens, UniProt P45983). Kind of data set: Inhibition of His-tagged JNK1.
Conditions: not given
In the case of `COc1cc2c(cc1Nc1nc(Nc3cccc(F)c3C(N)=O)c3cc[nH]c3n1)N(C(=O)CN(C)C)CC2`, the IC50 was 1590 nM.
`COc1ccc(N2CCN(C(C)C)CC2)cc1Nc1nc(Nc2cccc(F)c2C(N)=O)c2cc[nH]c2n1`: the IC50 is 3160 nM.
`COc1cc2c(cc1Nc1nc(Nc3cccc(F)c3C(N)=O)c3cc[nH]c3n1)N(C(=O)CN(C)OC)CC2`: the IC50 stood at 794 nM.
Same read-out and setting: then `COc1cc(C)c(N(C)C(=O)CN(C)C)cc1Nc1nc(Nc2cccc(F)c2C(N)=O)c2cc[nH]c2n1` [GSK-2219385A], with 10000 nM; and `COc1cc(Cl)c(OCCCN(C)C)cc1Nc1nc(Nc2cccc(F)c2C(N)=O)c2cc[nH]c2n1`, with 1260 nM; and `COc1cc2c(cc1Nc1nc(Nc3cccc(F)c3C(N)=O)c3cc[nH]c3n1)N(C(=O)CN1CCOCC1)CC2`, with 126 nM.
Same read-out and setting: then `COc1cc(C)c(N2CCN(C(C)C)CC2)cc1Nc1nc(Nc2cccc(F)c2C(N)=O)c2cc[nH]c2n1`, with 3890 nM.
`COc1ccc(NC(=O)CN(C)C)cc1Nc1nc(Nc2cccc(F)c2C(N)=O)c2cc[nH]c2n1` registered an IC50 of 3160 nM.
`COc1cc2c(cc1Nc1nc(Nc3cccc(F)c3C(N)=O)c3cc[nH]c3n1)N(C(=O)CCN1CCN(C(C)C)CC1)CC2` had an IC50 of 1590 nM.
In turn, `COc1ccc(CCCN(C)C)cc1Nc1nc(Nc2cccc(F)c2C(N)=O)c2cc[nH]c2n1` registered an IC50 of 5010 nM.
Compound `CCN(CC)CC(=O)N1CCc2cc(OC)c(Nc3nc(Nc4cccc(F)c4C(N)=O)c4cc[nH]c4n3)cc21` showed an IC50 of 1000 nM.
On to `COc1cc2c(cc1Nc1nc(Nc3cccc(F)c3C(N)=O)c3cc[nH]c3n1)N(C(=O)Cn1ccnc1)CC2`, for which the IC50 was 631 nM.
For `CNCC(=O)N1CCc2cc(OC)c(Nc3nc(Nc4cccc(F)c4C(N)=O)c4cc[nH]c4n3)cc21`, 2000 nM corresponded to half-maximal inhibition (IC50).
`COc1cc2c(cc1Nc1nc(Nc3cccc(F)c3C(N)=O)c3cc[nH]c3n1)N(C(=O)CN1CCN(C(C)C)CC1)CC2` [GSK-1751853A] yielded an IC50 of 1590 nM.
In turn, `CCN(C)CC(=O)N1CCc2cc(OC)c(Nc3nc(Nc4cccc(F)c4C(N)=O)c4cc[nH]c4n3)cc21` came in with an IC50 of 3160 nM.
Consider `COc1cc2c(cc1Nc1nc(Nc3cccc(F)c3C(N)=O)c3cc[nH]c3n1)N(CCN(C)C)CC2`, for which the IC50 was 100 nM.

In another data set the target is Mitogen-activated protein kinase 10 (Homo sapiens, UniProt P53779). Kind of data set: Inhibition of human His-tagged JNK3.
Mitogen-activated protein kinase 10, sequence (P53779 whole entry): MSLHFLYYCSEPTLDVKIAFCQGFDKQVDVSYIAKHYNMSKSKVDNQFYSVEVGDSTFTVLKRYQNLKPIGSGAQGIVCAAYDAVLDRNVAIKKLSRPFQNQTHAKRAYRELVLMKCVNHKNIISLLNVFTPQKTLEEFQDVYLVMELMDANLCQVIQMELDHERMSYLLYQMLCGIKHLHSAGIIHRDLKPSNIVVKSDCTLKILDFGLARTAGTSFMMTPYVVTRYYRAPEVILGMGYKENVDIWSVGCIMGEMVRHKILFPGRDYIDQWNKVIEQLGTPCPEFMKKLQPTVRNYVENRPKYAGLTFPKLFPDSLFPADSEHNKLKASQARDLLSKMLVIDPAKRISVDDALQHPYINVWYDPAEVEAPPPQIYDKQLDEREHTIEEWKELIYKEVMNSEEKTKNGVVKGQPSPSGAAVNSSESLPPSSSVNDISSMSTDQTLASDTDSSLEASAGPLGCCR
Conditions: not given
The compound `COc1ccc(N2CCN(C(C)C)CC2)cc1Nc1nc(Nc2cccc(F)c2C(N)=O)c2cc[nH]c2n1` registered an IC50 of 5.01 µM.
On the same count and under the same terms, then `COc1cc(C)c(N2CCN(C(C)C)CC2)cc1Nc1nc(Nc2cccc(F)c2C(N)=O)c2cc[nH]c2n1`, with 6.31 µM.

In a further data set the target is T1, Insulin-like growth factor 1 receptor. The data set is described as follows: Inhibition of phospho IGFR1 by cellular assay.
Conditions: not given
In turn, `COc1cc2c(cc1Nc1nc(Nc3cccc(F)c3C(N)=O)c3cc[nH]c3n1)N(C(=O)CN(C)C)CC2` yielded an IC50 of 56 nM.
Still for that read-out and setting: the value for `COc1ccc(N2CCN(C(C)C)CC2)cc1Nc1nc(Nc2cccc(F)c2C(N)=O)c2cc[nH]c2n1` was 201 nM; that for `COc1cc2c(cc1Nc1nc(Nc3cccc(F)c3C(N)=O)c3cc[nH]c3n1)N(C(=O)CN(C)OC)CC2` was 877 nM; that for `COc1cc(C)c(N(C)C(=O)CN(C)C)cc1Nc1nc(Nc2cccc(F)c2C(N)=O)c2cc[nH]c2n1` [GSK-2219385A] was 1730 nM.
On the same count and under the same terms, the value for `COc1cc(Cl)c(OCCCN(C)C)cc1Nc1nc(Nc2cccc(F)c2C(N)=O)c2cc[nH]c2n1` was 895 nM; that for `COc1cc2c(cc1Nc1nc(Nc3cccc(F)c3C(N)=O)c3cc[nH]c3n1)N(C(=O)CN1CCOCC1)CC2` was 72 nM; that for `COc1ccc(NC(=O)CN(C)C)cc1Nc1nc(Nc2cccc(F)c2C(N)=O)c2cc[nH]c2n1` was 28 nM.
On the same count and under the same terms, then `COc1cc2c(cc1Nc1nc(Nc3cccc(F)c3C(N)=O)c3cc[nH]c3n1)N(C(=O)CCN1CCN(C(C)C)CC1)CC2`, with 651 nM; and `COc1ccc(CCCN(C)C)cc1Nc1nc(Nc2cccc(F)c2C(N)=O)c2cc[nH]c2n1`, with 212 nM; and `CCN(CC)CC(=O)N1CCc2cc(OC)c(Nc3nc(Nc4cccc(F)c4C(N)=O)c4cc[nH]c4n3)cc21`, with 85 nM.
Take `COc1cc2c(cc1Nc1nc(Nc3cccc(F)c3C(N)=O)c3cc[nH]c3n1)N(C(=O)Cn1ccnc1)CC2`: the IC50 is 7760 nM.
With `CNCC(=O)N1CCc2cc(OC)c(Nc3nc(Nc4cccc(F)c4C(N)=O)c4cc[nH]c4n3)cc21`, the IC50 worked out at 79 nM.
As for `COc1cc2c(cc1Nc1nc(Nc3cccc(F)c3C(N)=O)c3cc[nH]c3n1)N(C(=O)CN1CCN(C(C)C)CC1)CC2` [GSK-1751853A], it took 376 nM to reach half-maximal inhibition (IC50).
Still for that read-out and setting: the value for `CCN(C)CC(=O)N1CCc2cc(OC)c(Nc3nc(Nc4cccc(F)c4C(N)=O)c4cc[nH]c4n3)cc21` was 19 nM; that for `COc1cc2c(cc1Nc1nc(Nc3cccc(F)c3C(N)=O)c3cc[nH]c3n1)N(CCN(C)C)CC2` was 794 nM.

System in the next data set: not listed separately
The data set is described as follows: Clearance in rat at 2.6 mg/kg, iv and […] mg/kg, po. The class given is ADME, organism-based. Conditions: in vivo.
`COc1cc2c(cc1Nc1nc(Nc3cccc(F)c3C(N)=O)c3cc[nH]c3n1)N(C(=O)CN(C)C)CC2` gave a clearance of 48 mL/min/kg.

System in another data set: not listed separately
Kind of data set: Clearance in rat at 2.5 mg/kg, iv and 10 mg/kg, po. The format is ADME, organism-based. Conditions: in vivo.
Compound `CNC(=O)c1c(F)cccc1Nc1nc(Nc2cc3c(cc2OC)CCN3C(=O)CN(C)C)nc2[nH]ccc12` gave a clearance of 73 mL/min/kg.

The test system of a further data set is Rattus norvegicus. Kind of data set: Dose normalized AUC (0 to 8 hrs) in rat at 9 mg/kg, po. The class given is ADME, organism-based. Details: time < 8 hr, dose 9 mg/kg, route oral. Conditions: in vivo.
Consider `COc1ccc(N2CCN(C(C)C)CC2)cc1Nc1nc(Nc2cccc(F)c2C(N)=O)c2cc[nH]c2n1`, for which the AUC worked out at 133 ng·h/mL/mg/kg.

A further data set has as its system Rattus norvegicus. Kind of data set: Dose normalized AUC (0 to 8 hrs) in rat at 13 mg/kg, po. The class given is ADME, organism-based. Details: time < 8 hr, dose 13 mg/kg, route oral. The following applies: in vivo.
In the case of `COc1cc2c(cc1Nc1nc(Nc3cccc(F)c3C(N)=O)c3cc[nH]c3n1)N(C(=O)CN(C)C)CC2`, the AUC amounted to 190 ng·h/mL/mg/kg.

A further data set has as its system Rattus norvegicus. Kind of data set: Dose normalized AUC (0 to 8 hrs) in rat at 10 mg/kg, po. The format is ADME, organism-based. Details: time < 8 hr, dose 10 mg/kg, route oral. Conditions: in vivo.
For the compound `CNC(=O)c1c(F)cccc1Nc1nc(Nc2cc3c(cc2OC)CCN3C(=O)CN(C)C)nc2[nH]ccc12`, the AUC was found to be 210 ng·h/mL/mg/kg.

System in the next data set: not listed separately
The data set is described as follows: Cmax in rat at 9 mg/kg, po. Details: dose 9 mg/kg, route oral. The following applies: in vivo. The format is ADME, organism-based.
What is called Cmax is the highest concentration seen after dosing. `COc1ccc(N2CCN(C(C)C)CC2)cc1Nc1nc(Nc2cccc(F)c2C(N)=O)c2cc[nH]c2n1` yielded a peak concentration (Cmax) of 233 ng/mL.

System in a further data set: not listed separately
The data set is described as follows: Cmax in rat at 13 mg/kg, po. The format is ADME, organism-based. Details: dose 13 mg/kg, route oral. Conditions: in vivo.
On to `COc1cc2c(cc1Nc1nc(Nc3cccc(F)c3C(N)=O)c3cc[nH]c3n1)N(C(=O)CN(C)C)CC2`, for which the highest level (Cmax) was 455 ng/mL.

System in the next data set: not listed separately
The data set is described as follows: Cmax in rat at 10 mg/kg, po. The format is ADME, organism-based. Details: dose 10 mg/kg, route oral. Conditions: in vivo.
Compound `CNC(=O)c1c(F)cccc1Nc1nc(Nc2cc3c(cc2OC)CCN3C(=O)CN(C)C)nc2[nH]ccc12` came in with a Cmax of 365 ng/mL.

System in another data set: not listed separately
Kind of data set: Oral bioavailability in rat at 13 mg/kg, po. The class given is ADME, organism-based. The following applies: in vivo.
The bioavailability is the share of a dose that reaches the circulation, judged against a reference dose that is usually intravenous. With `COc1cc2c(cc1Nc1nc(Nc3cccc(F)c3C(N)=O)c3cc[nH]c3n1)N(C(=O)CN(C)C)CC2`, the bioavailability came out at 61%.

System in a further data set: not listed separately
The data set is described as follows: Oral bioavailability in rat at 10 mg/kg, po. The format is ADME, organism-based. The following applies: in vivo.
`CNC(=O)c1c(F)cccc1Nc1nc(Nc2cc3c(cc2OC)CCN3C(=O)CN(C)C)nc2[nH]ccc12`: the bioavailability is 98%.

The next data set addresses T1, Insulin-like growth factor 1 receptor. Kind of data set: Inhibition of phospho IGFR1 by cellular assay in presence of 2%HSA.
Conditions: not given
Turning to `COc1cc2c(cc1Nc1nc(Nc3cccc(F)c3C(N)=O)c3cc[nH]c3n1)N(C(=O)CN(C)C)CC2`, the IC50 came to 487 nM.
